18 compounds from patent US9938322B2, “β-hairpin peptidomimetics” (priority 2013, dated 2018) can be followed below.

*1 amine or outer side, *2 acyl side, *3 side chain or, on linkers, in order; H or OH if unused. Where a SMILES comes first, the peptide text is derived from it. Side-chain parts run from the residue outwards. [ ]: non-standard residue; d: D form. The star is where a group is joined. Tyr(3-F) = N[C@@H](Cc1ccc(O)c(F)c1)C(=O)O; Pro(3S-OH) = O=C(O)[C@H]1NCC[C@@H]1O; Cha = N[C@@H](CC1CCCCC1)C(=O)O; NH(3-picolyl) = c1cncc(CN*)c1; Chg = N[C@H](C(=O)O)C1CCCCC1; Tle = CC(C)(C)[C@H](N)C(=O)O; dDab = NCC[C@@H](N)C(=O)O; Orn = NCCC[C@H](N)C(=O)O; Api = NC1(C(=O)O)CCNCC1; Dab = NCC[C@H](N)C(=O)O; Nva = CCC[C@H](N)C(=O)O; Dap = NC[C@H](N)C(=O)O; CO = O=C([*:1])[*:2]

The data set deals with human red blood cells (hRBC). The data set is described as follows: Hemolysis of human red blood cells. The settings on record: red cells of human, 1 h, 100. It is filed as cell-based. A digest of the protocol:
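Washed fresh human erythrocytes (20% v/v, about 0.9×10^9 cells/ml final) incubated with peptide at 100 μg/ml for 1 h at 37° C with shaking. Supernatant OD540 read; hemolysis expressed relative to 2.5% Triton X-100 (100%) and PBS with 0.001% acetic acid (0%).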
With `COc1ccc(C[C@@H]2NC(=O)[C@H](CO)NC(=O)[C@H](CC(C)C)NC(=O)[C@@H]3CCCN3C(=O)[C@H]3CCCN3C(=O)[C@H](CO)NC(=O)[C@H](C)NC(=O)[C@H](C(C)(C)C)NC(=O)[C@H](CCN)NC(=O)[C@H](Cc3c[nH]c4ccccc34)NC(=O)[C@H](CCN)NC(=O)[C@@H](CCN)NC(=O)[C@H](CCCN)NC(=O)[C@H](CCN)NC2=O)cc1` [compound 27] (cyclo(LSY(Me)[Dab][Orn][dDab][Dab]W[Dab][Tle]AS[dP]P)), the “Hemolysis at 100 μg/ml” value came out at 1%.

Consider `COC[C@@H]1NC(=O)[C@H](C(C)(C)C)NC(=O)[C@H](CCN)NC(=O)[C@H](Cc2c[nH]c3ccccc23)NC(=O)[C@H](CCN)NC(=O)[C@@H](CCN)NC(=O)[C@H](CCCN)NC(=O)[C@H](CCN)NC(=O)[C@H](CC2CCCCC2)NC(=O)[C@H](CN)NC(=O)[C@H](Cc2c[nH]c3ccccc23)NC(=O)[C@@H]2CCCN2C(=O)[C@H]2CCCN2C(=O)[C@H](CO)NC1=O` [Ex. 6] (cyclo(W[Dap][Cha][Dab][Orn][dDab][Dab]W[Dab][Tle]S(Me)S[dP]P)), for which the “Hemolysis at 100 μg/ml” value is listed as 3%. For `CC(C)[C@@H]1NC(=O)[C@@H]2CCCN2C(=O)[C@H]2CCCN2C(=O)[C@H](CO)NC(=O)[C@H](C)NC(=O)[C@H](C(C)(C)C)NC(=O)[C@H](CCN)NC(=O)[C@H](Cc2c[nH]c3ccccc23)NC(=O)[C@H](CCN)NC(=O)[C@@H](CCN)NC(=O)[C@H](CCCN)NC(=O)[C@H](CCN)NC(=O)[C@H](Cc2ccc(O)cc2)NC(=O)[C@H](CO)NC1=O` [compound 45] (cyclo(VSY[Dab][Orn][dDab][Dab]W[Dab][Tle]AS[dP]P)) the value was 2%. With `CC(C)C[C@@H]1NC(=O)[C@@H]2CCCN2C(=O)[C@H]2CCCN2C(=O)[C@H](CO)NC(=O)[C@H](C)NC(=O)[C@H](CC2CCCCC2)NC(=O)[C@H](CCN)NC(=O)[C@H](Cc2c[nH]c3ccccc23)NC(=O)[C@H](CCN)NC(=O)[C@@H](CCN)NC(=O)[C@H](CCCN)NC(=O)[C@H](CCN)NC(=O)[C@H](Cc2ccc(O)cc2)NC(=O)[C@H](C)NC1=O` [compound 127] (cyclo(LAY[Dab][Orn][dDab][Dab]W[Dab][Cha]AS[dP]P)) the figure was 1%; with `CC(C)[C@@H]1NC(=O)[C@@H]2[C@@H](O)CCN2C(=O)[C@H]2CCCN2C(=O)[C@H](CO)NC(=O)[C@H](C)NC(=O)[C@H](C(C)(C)C)NC(=O)[C@H](CCN)NC(=O)[C@H](Cc2c[nH]c3ccccc23)NC(=O)[C@H](CCN)NC(=O)[C@@H](CCN)NC(=O)[C@H](CCCN)NC(=O)[C@H](CCN)NC(=O)[C@H](Cc2ccc(O)cc2)NC(=O)[C@H](CO)NC1=O` [compound 56] (cyclo(AS[dP][Pro(3S-OH)]VSY[Dab][Orn][dDab][Dab]W[Dab][Tle])), 1%.

As for `CC(C)[C@@H]1NC(=O)[C@@H]2CCCN2C(=O)[C@H]2CCCN2C(=O)[C@H](CO)NC(=O)[C@H](C)NC(=O)[C@H](C2CCCCC2)NC(=O)[C@H](CCN)NC(=O)[C@H](Cc2c[nH]c3ccccc23)NC(=O)[C@H](CCN)NC(=O)[C@@H](CCN)NC(=O)[C@H](CCCN)NC(=O)[C@H](CCN)NC(=O)[C@H](Cc2ccc(O)cc2)NC(=O)[C@H](CO)NC1=O` [compound 90] (cyclo(VSY[Dab][Orn][dDab][Dab]W[Dab][Chg]AS[dP]P)), the “Hemolysis at 100 μg/ml” value is recorded as 2%.

For `C[C@@H]1NC(=O)[C@H](C(C)(C)C)NC(=O)[C@H](CCN)NC(=O)[C@H](Cc2c[nH]c3ccccc23)NC(=O)[C@H](CCN)NC(=O)C2(CCNCC2)NC(=O)[C@H](CCCN)NC(=O)[C@H](CCN)NC(=O)[C@H](CC2CCCCC2)NC(=O)[C@H](CN)NC(=O)[C@H](Cc2c[nH]c3ccccc23)NC(=O)[C@@H]2CCCN2C(=O)[C@H]2CCCN2C(=O)[C@H](CO)NC1=O` [Ex. 62] (cyclo(W[Dap][Cha][Dab][Orn][Api][Dab]W[Dab][Tle]AS[dP]P)), the “Hemolysis at 100 μg/ml” value is listed as 1%. With `CC(C)C[C@@H]1NC(=O)[C@@H]2CCCN2C(=O)[C@H]2CCCN2C(=O)[C@H](CO)NC(=O)[C@H](C)NC(=O)[C@H](C(C)(C)C)NC(=O)[C@H](CCN)NC(=O)[C@H](Cc2c[nH]c3ccccc23)NC(=O)[C@H](CCN)NC(=O)[C@@H](CCN)NC(=O)[C@H](CCCN)NC(=O)[C@H](CCN)NC(=O)[C@H](CC2CCCCC2)NC(=O)[C@H](CNC(=O)NCc2cccnc2)NC1=O` [compound 39] (cyclo(L[Dap]([CO-NH(3-picolyl)])[Cha][Dab][Orn][dDab][Dab]W[Dab][Tle]AS[dP]P)) the figure was 3%; with `CCC[C@@H]1NC(=O)[C@@H]2CCCN2C(=O)[C@H]2CCCN2C(=O)[C@H](CO)NC(=O)[C@H](C)NC(=O)[C@H](CC2CCCCC2)NC(=O)[C@H](CCN)NC(=O)[C@H](Cc2c[nH]c3ccccc23)NC(=O)[C@H](CCN)NC(=O)[C@@H](CCN)NC(=O)[C@H](CCCN)NC(=O)[C@H](CCN)NC(=O)[C@H](Cc2ccc(O)cc2)NC(=O)[C@H](CO)NC1=O` [compound 93] (cyclo([Nva]SY[Dab][Orn][dDab][Dab]W[Dab][Cha]AS[dP]P)), 5%; with `CC(C)C[C@@H]1NC(=O)[C@@H]2CCCN2C(=O)[C@H]2CCCN2C(=O)[C@H](CO)NC(=O)[C@H]([C@@H](C)O)NC(=O)[C@H](C(C)(C)C)NC(=O)[C@H](CCN)NC(=O)[C@H](Cc2c[nH]c3ccccc23)NC(=O)[C@H](CCN)NC(=O)[C@@H](CCN)NC(=O)[C@H](CCCN)NC(=O)[C@H](CCN)NC(=O)[C@H](Cc2ccc(O)cc2)NC(=O)[C@H]([C@@H](C)O)NC1=O` [compound 122] (cyclo(LTY[Dab][Orn][dDab][Dab]W[Dab][Tle]TS[dP]P)), 0%. With `CC(C)C[C@@H]1NC(=O)[C@@H]2CCCN2C(=O)[C@H]2CCCN2C(=O)[C@H](CO)NC(=O)[C@H](C)NC(=O)[C@H](Cc2c[nH]c3ccccc23)NC(=O)[C@H](CCN)NC(=O)[C@H](Cc2c[nH]c3ccccc23)NC(=O)[C@H](CCN)NC(=O)[C@@H](CCN)NC(=O)[C@H](CCCN)NC(=O)[C@H](CCN)NC(=O)[C@H](Cc2ccc(O)cc2)NC(=O)[C@H](CO)NC1=O` [compound 34] (cyclo(LSY[Dab][Orn][dDab][Dab]W[Dab]WAS[dP]P)) the figure was 1%.

Take `CC(C)C[C@@H]1NC(=O)[C@@H]2CCCN2C(=O)[C@H]2CCCN2C(=O)[C@H](CO)NC(=O)[C@H](CO)NC(=O)[C@H](C2CCCCC2)NC(=O)[C@H](CCN)NC(=O)[C@H](Cc2c[nH]c3ccccc23)NC(=O)[C@H](CCN)NC(=O)[C@@H](CCN)NC(=O)[C@H](CCCN)NC(=O)[C@H](CCN)NC(=O)[C@H](Cc2ccc(O)cc2)NC(=O)[C@H](CO)NC1=O` [compound 116] (cyclo(LSY[Dab][Orn][dDab][Dab]W[Dab][Chg]SS[dP]P)): the “Hemolysis at 100 μg/ml” value is given as 3%. For `CC(C)C[C@@H]1NC(=O)[C@@H]2CCCN2C(=O)[C@H]2CCCN2C(=O)[C@H](CO)NC(=O)[C@H](CO)NC(=O)[C@H](Cc2c[nH]c3ccccc23)NC(=O)[C@H](CCN)NC(=O)[C@H](Cc2c[nH]c3ccccc23)NC(=O)[C@H](CCN)NC(=O)[C@@H](CCN)NC(=O)[C@H](CCCN)NC(=O)[C@H](CCN)NC(=O)[C@H](Cc2ccc(O)cc2)NC(=O)[C@H](CO)NC1=O` [compound 111] (cyclo(LSY[Dab][Orn][dDab][Dab]W[Dab]WSS[dP]P)) the value was 1%; for `CC(C)C[C@@H]1NC(=O)[C@@H]2CCCN2C(=O)[C@H]2CCCN2C(=O)[C@H]([C@@H](C)O)NC(=O)[C@H](CO)NC(=O)[C@H](C(C)(C)C)NC(=O)[C@H](CCN)NC(=O)[C@H](Cc2c[nH]c3ccccc23)NC(=O)[C@H](CCN)NC(=O)[C@@H](CCN)NC(=O)[C@H](CCN)NC(=O)[C@H](CCN)NC(=O)[C@H](Cc2ccc(O)cc2)NC(=O)[C@H]([C@@H](C)O)NC1=O` [compound 124] (cyclo(LTY[Dab][Dab][dDab][Dab]W[Dab][Tle]ST[dP]P)), 0.5%; for `CC(C)C[C@@H]1NC(=O)[C@@H]2CCCN2C(=O)[C@H]2CCCN2C(=O)[C@H]([C@@H](C)O)NC(=O)[C@H](C)NC(=O)[C@H](C(C)(C)C)NC(=O)[C@H](CCN)NC(=O)[C@H](Cc2c[nH]c3ccccc23)NC(=O)[C@H](CCN)NC(=O)[C@@H](CCN)NC(=O)[C@H](CCCN)NC(=O)[C@H](CCN)NC(=O)[C@H](Cc2ccc(O)cc2)NC(=O)[C@H](CO)NC1=O` [compound 88] (cyclo(LSY[Dab][Orn][dDab][Dab]W[Dab][Tle]AT[dP]P)), 1%.

For the compound `CC(C)C[C@@H]1NC(=O)[C@@H]2CCCN2C(=O)[C@H]2CCCN2C(=O)[C@H](CO)NC(=O)[C@H](C)NC(=O)[C@H](C(C)(C)C)NC(=O)[C@H](CCN)NC(=O)[C@H](Cc2c[nH]c3ccccc23)NC(=O)[C@H](CCCNC(=N)N)NC(=O)[C@@H](CCN)NC(=O)[C@H](CCCN)NC(=O)[C@H](CCN)NC(=O)[C@H](Cc2ccc(O)cc2)NC(=O)[C@H](CO)NC1=O` [compound 102] (cyclo(LSY[Dab][Orn][dDab]RW[Dab][Tle]AS[dP]P)), the “Hemolysis at 100 μg/ml” value worked out at 0%.

As for `C[C@@H]1NC(=O)[C@H](C(C)(C)C)NC(=O)[C@H](CCN)NC(=O)[C@H](Cc2c[nH]c3ccccc23)NC(=O)[C@H](CCN)NC(=O)[C@@H](CCN)NC(=O)[C@H](CCCN)NC(=O)[C@H](CCN)NC(=O)[C@H](Cc2ccc(O)cc2)NC(=O)[C@H](CO)NC(=O)[C@H]([C@@H](C)O)NC(=O)[C@@H]2CCCN2C(=O)[C@H]2CCCN2C(=O)[C@H](Cc2ccc(O)cc2)NC1=O` [compound 158] (cyclo(TSY[Dab][Orn][dDab][Dab]W[Dab][Tle]AY[dP]P)), the “Hemolysis at 100 μg/ml” value was determined as 1%. On to `CCC[C@@H]1NC(=O)[C@@H]2CCCN2C(=O)[C@H]2CCCN2C(=O)[C@H](CO)NC(=O)[C@H](C)NC(=O)[C@H](C(C)(C)C)NC(=O)[C@H](CCN)NC(=O)[C@H](Cc2c[nH]c3ccccc23)NC(=O)[C@H](CCN)NC(=O)[C@@H](CCN)NC(=O)[C@H](CCCN)NC(=O)[C@H](CCN)NC(=O)[C@H](Cc2ccc(O)c(F)c2)NC(=O)[C@H](CO)NC1=O` [compound 105] (cyclo([Nva]S[Tyr(3-F)][Dab][Orn][dDab][Dab]W[Dab][Tle]AS[dP]P)), for which the “Hemolysis at 100 μg/ml” value is given as 1%.
